Experimental data: ChEMBL document CHEMBL1944634, “Design, synthesis and biological evaluation of 6-substituted aminocarbonyl benzimidazole derivatives as nonpeptidic angiotensin II AT1 receptor antagonists” (Eur J Med Chem, 2012)
Positions count from the first letter of the chain named. ≈ marks a conversion by molar mass, not a printed value.

Biological target: T1, Type-2 angiotensin II receptor (Homo sapiens, UniProt P50052)
T1 sequence (P50052 whole entry): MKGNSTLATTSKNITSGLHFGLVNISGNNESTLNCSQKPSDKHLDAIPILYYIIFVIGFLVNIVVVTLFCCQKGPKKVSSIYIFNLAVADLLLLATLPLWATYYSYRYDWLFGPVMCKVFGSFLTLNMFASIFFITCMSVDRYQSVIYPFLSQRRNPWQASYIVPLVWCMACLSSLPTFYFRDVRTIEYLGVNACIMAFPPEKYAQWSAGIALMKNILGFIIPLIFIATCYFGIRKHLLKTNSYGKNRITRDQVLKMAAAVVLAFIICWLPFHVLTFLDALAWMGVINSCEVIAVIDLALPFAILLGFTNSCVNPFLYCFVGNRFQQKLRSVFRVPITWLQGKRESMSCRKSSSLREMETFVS
Test: Displacement of [125I]Sar1 Ile8-Ang 2 from angiotensin 2 AT2 receptor after 180 mins by gamma counting
Settings: not given
In the case of `CCCc1nc2c(C)cc(C(=O)NCCc3cc(OC)ccc3OC)cc2n1Cc1ccc(-c2ccccc2C(=O)O)cc1`, the IC50 is reported as 1400 nM. Work on `CCCc1nc2c(C)cc(C(=O)NCc3ccc(OC)cc3)cc2n1Cc1ccc(-c2ccccc2C(=O)O)cc1` yielded an IC50 of 3600 nM. Work on `CCCc1nc2c(C)cc(C(=O)NCc3cccc(OC)c3)cc2n1Cc1ccc(-c2ccccc2C(=O)O)cc1` yielded an IC50 of over 10000 nM. `CCCc1nc2c(C)cc(C(=O)NCCc3ccc(F)cc3)cc2n1Cc1ccc(-c2ccccc2C(=O)O)cc1` showed an IC50 of 1300 nM. Work on `CCCc1nc2c(C)cc(C(=O)NCCc3ccc(OC)c(OC)c3)cc2n1Cc1ccc(-c2ccccc2C(=O)O)cc1` yielded an IC50 of 1200 nM. With `CCCc1nc2c(C)cc(C(=O)NCCc3ccc(OC)cc3)cc2n1Cc1ccc(-c2ccccc2C(=O)O)cc1` the IC50 was 1500 nM. `CCCc1nc2c(C)cc(C(=O)NCc3ccc(OC)c(OC)c3)cc2n1Cc1ccc(-c2ccccc2C(=O)O)cc1` showed an IC50 of over 10000 nM. For `CCCc1nc2c(C)cc(C(=O)NCCc3cccc(OC)c3)cc2n1Cc1ccc(-c2ccccc2C(=O)O)cc1`, the IC50 was over 10000 nM. Work on `CCCc1nc2c(C)cc(C(=O)NCc3ccccc3OC)cc2n1Cc1ccc(-c2ccccc2C(=O)O)cc1` yielded an IC50 of 1100 nM.

Biological target: T2, Type-1 angiotensin II receptor (Homo sapiens, UniProt P30556)
T2 sequence (P30556 whole entry): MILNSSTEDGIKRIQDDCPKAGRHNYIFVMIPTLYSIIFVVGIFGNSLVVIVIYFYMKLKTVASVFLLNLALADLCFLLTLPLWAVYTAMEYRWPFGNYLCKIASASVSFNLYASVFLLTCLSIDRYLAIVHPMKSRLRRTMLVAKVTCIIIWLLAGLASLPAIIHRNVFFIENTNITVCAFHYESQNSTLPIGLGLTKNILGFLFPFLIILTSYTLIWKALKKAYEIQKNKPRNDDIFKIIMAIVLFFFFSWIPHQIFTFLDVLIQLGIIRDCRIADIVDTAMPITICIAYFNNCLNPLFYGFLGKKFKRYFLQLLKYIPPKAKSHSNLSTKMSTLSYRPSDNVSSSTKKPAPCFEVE
Test: Displacement of [125I]Sar1 Ile8-Ang 2 from angiotensin 2 AT1 receptor after 180 mins by gamma counting
Settings: not given
With `CCCc1nc2c(C)cc(C(=O)NCCc3cc(OC)ccc3OC)cc2n1Cc1ccc(-c2ccccc2C(=O)O)cc1` the IC50 was 1.3 nM. Work on `CCCc1nc2c(C)cc(C(=O)NCc3ccc(OC)cc3)cc2n1Cc1ccc(-c2ccccc2C(=O)O)cc1` yielded an IC50 of 4.3 nM. `CCCc1nc2c(C)cc(C(=O)NCc3cccc(OC)c3)cc2n1Cc1ccc(-c2ccccc2C(=O)O)cc1` gave an IC50 of 326 nM. `CCCc1nc2c(C)cc(C(=O)NCCc3ccc(F)cc3)cc2n1Cc1ccc(-c2ccccc2C(=O)O)cc1` gave an IC50 of 198 nM. For `CCCc1nc2c(C)cc(C(=O)NCCc3ccccc3F)cc2n1Cc1ccc(-c2ccccc2C(=O)O)cc1`, the IC50 was 106 nM. Compound `CCCc1nc2c(C)cc(C(=O)NCCc3ccc(OC)c(OC)c3)cc2n1Cc1ccc(-c2ccccc2C(=O)O)cc1` has an IC50 of 57.6 nM. In the case of `CCCc1nc2c(C)cc(C(=O)NCc3ccccc3)cc2n1Cc1ccc(-c2ccccc2C(=O)O)cc1`, the IC50 is reported as 52.5 nM. Work on `CCCc1nc2c(C)cc(C(=O)NCCc3ccc(OC)cc3)cc2n1Cc1ccc(-c2ccccc2C(=O)O)cc1` yielded an IC50 of 214 nM. `CCCc1nc2c(C)cc(C(=O)NCc3ccc(OC)c(OC)c3)cc2n1Cc1ccc(-c2ccccc2C(=O)O)cc1` showed an IC50 of 30.6 nM. `CCCc1nc2c(C)cc(C(=O)NCCc3cccc(OC)c3)cc2n1Cc1ccc(-c2ccccc2C(=O)O)cc1` showed an IC50 of 30.8 nM. For `CCCc1nc2c(C)cc(C(=O)NCc3ccccc3OC)cc2n1Cc1ccc(-c2ccccc2C(=O)O)cc1`, the IC50 was 2.4 nM.

Test system: Rattus norvegicus
Test: Antihypertensive activity in spontaneously hypertensive rat assessed as decrease in blood pressure at 10 mg/kg, po by tail plethysmography
Format: functional
Settings: not given
With `CCCc1nc2c(C)cc(C(=O)NCCc3cc(OC)ccc3OC)cc2n1Cc1ccc(-c2ccccc2C(=O)O)cc1` the Activity was over 30 mmHg.

Biological target: T3, Type-1 angiotensin II receptor (Oryctolagus cuniculus, UniProt P34976)
T3 sequence (P34976 whole entry): T2 sequence (P30556 whole entry) with I2M, V49A, I254V, I270V, R272H, R311K, T349S, A353V
Test: Antagonist activity at angiotensin 2 AT1 receptor in Japanese White rabbits thoracic aorta assessed as inhibition of angiotensin II-induced contraction after 60 mins
Settings: read-out: pA2 (converted)
`CCCc1nc2c(C)cc(C(=O)NCCc3cc(OC)ccc3OC)cc2n1Cc1ccc(-c2ccccc2C(=O)O)cc1` showed a Kb of 3.16 nM. For `CCCc1nc2c(C)cc(C(=O)NCc3ccc(OC)cc3)cc2n1Cc1ccc(-c2ccccc2C(=O)O)cc1`, the Kb was 4.79 nM. Compound `CCCc1nc2c(C)cc(C(=O)NCc3ccccc3OC)cc2n1Cc1ccc(-c2ccccc2C(=O)O)cc1` has a Kb of 6.92 nM.

Test system: not listed separately
Test: Toxicity against Photobacterium phosphoreum T3 mutant assessed as inhibition of luminescence after 15 mins by microtox test
Format: organism-based
Settings: Photobacterium phosphoreum T3 mutant (luminescent bacteria), read-out: LC50
Compound `CCCc1nc2c(C)cc(C(=O)NCCc3cc(OC)ccc3OC)cc2n1Cc1ccc(-c2ccccc2C(=O)O)cc1` has an EC50 (luminescence inhibition) at 0.25 h of over 100 µg/mL. In the case of `CCCc1nc2c(C)cc(C(=O)NCc3ccc(OC)cc3)cc2n1Cc1ccc(-c2ccccc2C(=O)O)cc1`, the EC50 (luminescence inhibition) at 0.25 h is reported as over 100 µg/mL. In the case of `CCCc1nc2c(C)cc(C(=O)NCc3cccc(OC)c3)cc2n1Cc1ccc(-c2ccccc2C(=O)O)cc1`, the EC50 (luminescence inhibition) at 0.25 h is reported as over 100 µg/mL. `CCCc1nc2c(C)cc(C(=O)NCCc3ccc(F)cc3)cc2n1Cc1ccc(-c2ccccc2C(=O)O)cc1` showed an EC50 (luminescence inhibition) at 0.25 h of 89 µg/mL (≈ 162 µM). Compound `CCCc1nc2c(C)cc(C(=O)NCCc3ccccc3F)cc2n1Cc1ccc(-c2ccccc2C(=O)O)cc1` has an EC50 (luminescence inhibition) at 0.25 h of 65 µg/mL (≈ 118 µM). Work on `CCCc1nc2c(C)cc(C(=O)NCCc3ccc(OC)c(OC)c3)cc2n1Cc1ccc(-c2ccccc2C(=O)O)cc1` yielded an EC50 (luminescence inhibition) at 0.25 h of over 100 µg/mL. Work on `CCCc1nc2c(C)cc(C(=O)NCc3ccccc3)cc2n1Cc1ccc(-c2ccccc2C(=O)O)cc1` yielded an EC50 (luminescence inhibition) at 0.25 h of 78 µg/mL (≈ 151 µM). For `CCCc1nc2c(C)cc(C(=O)NCCc3ccc(OC)cc3)cc2n1Cc1ccc(-c2ccccc2C(=O)O)cc1`, the EC50 (luminescence inhibition) at 0.25 h was over 100 µg/mL. With `CCCc1nc2c(C)cc(C(=O)NCc3ccc(OC)c(OC)c3)cc2n1Cc1ccc(-c2ccccc2C(=O)O)cc1` the EC50 (luminescence inhibition) at 0.25 h was over 100 µg/mL. In the case of `CCCc1nc2c(C)cc(C(=O)NCCc3cccc(OC)c3)cc2n1Cc1ccc(-c2ccccc2C(=O)O)cc1`, the EC50 (luminescence inhibition) at 0.25 h is reported as 72 µg/mL (≈ 128 µM). `CCCc1nc2c(C)cc(C(=O)NCc3ccccc3OC)cc2n1Cc1ccc(-c2ccccc2C(=O)O)cc1` showed an EC50 (luminescence inhibition) at 0.25 h of over 100 µg/mL.

Biological target: T4, Type-1 angiotensin II receptor (Homo sapiens) (UniProt P30556)
T4 sequence (whole entry): T2 sequence (P30556 whole entry)
Test: Ratio of losartan IC50 to compound IC50 for angiotensin 2 AT1 receptor
Settings: not given
`CCCc1nc2c(C)cc(C(=O)NCCc3cc(OC)ccc3OC)cc2n1Cc1ccc(-c2ccccc2C(=O)O)cc1` showed a Ratio IC50 of 12.
